In patent US11446287B2, “Compounds and methods for EP300 or CBP modulation and indications therefor” (Opna Immuno-Oncology SA, priority 2019, dated 2022):

molecular target: T1, Recombinant human EP300 containing the bromodomain (EP300-BD (1040-1161)) (Homo sapiens, UniProt Q09472); test: EP300 Alphascreen binding assay
T1 construct: Recombinant human EP300 bromodomain (EP300-BD (1040-1161)); made in house; host or cells: E. coli BL21-CodonPlus (DE3), modified pET vector
T1 sequence (Q09472 1040-1161): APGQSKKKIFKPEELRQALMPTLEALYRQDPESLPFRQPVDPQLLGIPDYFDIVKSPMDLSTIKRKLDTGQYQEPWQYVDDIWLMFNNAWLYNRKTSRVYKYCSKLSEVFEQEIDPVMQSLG
Summary of the method: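 Displacement of a biotinylated acetyl-K56 histone H3 peptide from the N-His bromodomain construct (1040-1161) measured by AlphaScreen proximity, beads at 7.5 μg/ml final, read 60 min after addition. Protein, peptide and compound first incubated 1 h at room temperature, pH 7.5 HEPES buffer; IC50 by four-parameter logistic fit.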

Structure (SMILES) | IC50
Cc1noc(C)c1-c1cnc2c(c1)c(-c1ccc(C(N)=O)cc1)cn2C(c1ccccn1)C1CCCC1 (stereo not shown) [P-0020, 4-(1-(cyclopentyl(pyridin-2-yl)methyl)-5-(3,5-dimethylisoxazol-4-yl)-1H-pyrrolo[2,3-b]pyridin-3-yl)benzamide] | 1 to 8 µM
CNC(=O)c1ccc(-c2cn(C(c3ccccn3)C3CCCC3)c3ncc(-c4c(C)noc4C)cc23)cc1 (stereo not shown) [P-0021, 4-(1-(cyclopentyl(pyridin-2-yl)methyl)-5-(3,5-dimethylisoxazol-4-yl)-1H-pyrrolo[2,3-b]pyridin-3-yl)-N-methylbenzamide] | 1 to 8 µM
Cc1noc(C)c1-c1cnc2c(c1)c(-c1ccc(C#N)cc1)cn2C(c1ccccn1)C1CCCC1 (stereo not shown) [P-0022, 4-(1-(cyclopentyl(pyridin-2-yl)methyl)-5-(3,5-dimethylisoxazol-4-yl)-1H-pyrrolo[2,3-b]pyridin-3-yl)benzonitrile] | 8 to 1000 µM
Cc1noc(C)c1-c1cnc2c(c1)c(-c1ccc3c(c1)CNC3=O)cn2C(c1ccccn1)C1CCCC1 (stereo not shown) [P-0023, 5-(1-(cyclopentyl(pyridin-2-yl)methyl)-5-(3,5-dimethylisoxazol-4-yl)-1H-pyrrolo[2,3-b]pyridin-3-yl)isoindolin-1-one] | 1 to 8 µM
Cc1noc(C)c1-c1cnc2c(c1)c(-c1ccc(-c3nn[nH]n3)cc1)cn2C(c1ccccn1)C1CCCC1 (stereo not shown) [P-0024, 4-(3-(4-(2H-tetrazol-5-yl)phenyl)-1-(cyclopentyl(pyridin-2-yl)methyl)-1H-pyrrolo[2,3-b]pyridin-5-yl)-3,5-dimethylisoxazole] | 1 to 8 µM
Cc1noc(C)c1-c1cnc2c(c1)c(-c1ccc(C(=O)O)c(F)c1)cn2C(c1ccccn1)C1CCCC1 (stereo not shown) [P-0025, 4-(1-(cyclopentyl(pyridin-2-yl)methyl)-5-(3,5-dimethylisoxazol-4-yl)-1H-pyrrolo[2,3-b]pyridin-3-yl)-2-fluorobenzoic acid] | 0.0001 to 1 µM
Cc1noc(C)c1-c1cnc2c(c1)c(-c1ccc(C(=O)O)nc1)cn2C(c1ccccn1)C1CCCC1 (stereo not shown) [P-0026, 5-(1-(cyclopentyl(pyridin-2-yl)methyl)-5-(3,5-dimethylisoxazol-4-yl)-1H-pyrrolo[2,3-b]pyridin-3-yl)picolinic acid] | 0.0001 to 1 µM
Cc1cc(-c2c(C(F)(F)F)n([C@@H](C)c3ccccn3)c3cc(-c4c(C)noc4C)cnc23)ccc1C(=O)O [P-0243, (S)-4-(6-(3,5-dimethylisoxazol-4-yl)-1-(1-(pyridin-2-yl)ethyl)-2-(trifluoromethyl)-1H-pyrrolo[3,2-b]pyridin-3-yl)-2-methylbenzoic acid] | 1 to 8 µM
COc1cc(-c2c(C(F)(F)F)n([C@@H](C)c3ccccn3)c3cc(-c4c(C)noc4C)cnc23)ccc1C(=O)O [P-0244, (S)-4-(6-(3,5-dimethylisoxazol-4-yl)-1-(1-(pyridin-2-yl)ethyl)-2-(trifluoromethyl)-1H-pyrrolo[3,2-b]pyridin-3-yl)-2-methoxybenzoic acid] | 1 to 8 µM
Cc1noc(C)c1-c1cnc2c(-c3cccc(C(=O)O)c3F)c(C(F)(F)F)n([C@@H](C)c3ccccn3)c2c1 [P-0245, (S)-3-(6-(3,5-dimethylisoxazol-4-yl)-1-(1-(pyridin-2-yl)ethyl)-2-(trifluoromethyl)-1H-pyrrolo[3,2-b]pyridin-3-yl)-2-fluorobenzoic acid] | 0.0001 to 1 µM
Cc1noc(C)c1-c1cnc2c(-c3cccc(C(=O)O)c3C)c(C(F)(F)F)n([C@@H](C)c3ccccn3)c2c1 [P-0246, (S)-3-(6-(3,5-dimethylisoxazol-4-yl)-1-(1-(pyridin-2-yl)ethyl)-2-(trifluoromethyl)-1H-pyrrolo[3,2-b]pyridin-3-yl)-2-methylbenzoic acid] | 1 to 8 µM
Cc1noc(C)c1-c1cnc2c(-c3cccc(C(=O)O)c3Cl)c(C(F)(F)F)n([C@@H](C)c3ccccn3)c2c1 [P-0247, (S)-2-chloro-3-(6-(3,5-dimethylisoxazol-4-yl)-1-(1-(pyridin-2-yl)ethyl)-2-(trifluoromethyl)-1H-pyrrolo[3,2-b]pyridin-3-yl)benzoic acid] | 0.0001 to 1 µM
CCOC(=O)c1cc(-c2cn(-c3ccc(F)cc3F)c3ncc(-c4c(C)noc4C)cc23)c(OCC)cc1O [P-0248, ethyl 5-(1-(2,4-difluorophenyl)-5-(3,5-dimethylisoxazol-4-yl)-1H-pyrrolo[2,3-b]pyridin-3-yl)-4-ethoxy-2-hydroxybenzoate] | 8 to 1000 µM
CCOc1cc(O)c(C(=O)O)cc1-c1cn(-c2ccc(F)cc2F)c2ncc(-c3c(C)noc3C)cc12 [P-0249, 5-(1-(2,4-difluorophenyl)-5-(3,5-dimethylisoxazol-4-yl)-1H-pyrrolo[2,3-b]pyridin-3-yl)-4-ethoxy-2-hydroxybenzoic acid] | 0.0001 to 1 µM
CCOc1cc(OC)c(C(=O)O)cc1-c1cn(-c2ccc(F)cc2F)c2ncc(-c3c(C)noc3C)cc12 [P-0250, 5-(1-(2,4-difluorophenyl)-5-(3,5-dimethylisoxazol-4-yl)-1H-pyrrolo[2,3-b]pyridin-3-yl)-4-ethoxy-2-methoxybenzoic acid] | 0.0001 to 1 µM
Cc1noc(C)c1-c1cnc2c(c1)c(-c1ccc(C(=O)O)cc1OC(F)(F)F)cn2-c1cnccc1F [P-0251, 4-(5-(3,5-dimethylisoxazol-4-yl)-1-(4-fluoropyridin-3-yl)-1H-pyrrolo[2,3-b]pyridin-3-yl)-3-(trifluoromethoxy)benzoic acid] | 0.0001 to 1 µM
Cc1noc(C)c1-c1cnc2c(c1)c(-c1ccc(C(=O)O)cc1OC(F)(F)F)cn2-c1cnccc1O [P-0252, 4-(5-(3,5-dimethylisoxazol-4-yl)-1-(4-hydroxypyridin-3-yl)-1H-pyrrolo[2,3-b]pyridin-3-yl)-3-(trifluoromethoxy)benzoic acid] | 0.0001 to 1 µM
Cc1noc(C)c1-c1cnc2c(c1)c(-c1ccc(C(=O)O)cc1OC(F)(F)F)cn2-c1ccncc1Cl [P-0253, 4-(1-(3-chloropyridin-4-yl)-5-(3,5-dimethylisoxazol-4-yl)-1H-pyrrolo[2,3-b]pyridin-3-yl)-3-(trifluoromethoxy)benzoic acid] | 0.0001 to 1 µM
Cc1noc(C)c1-c1cnc2c(c1)c(-c1ccc(C(=O)O)cc1OC(F)(F)F)cn2-c1c(F)cccc1C#N [P-0254, 4-(1-(2-cyano-6-fluorophenyl)-5-(3,5-dimethylisoxazol-4-yl)-1H-pyrrolo[2,3-b]pyridin-3-yl)-3-(trifluoromethoxy)benzoic acid] | 0.0001 to 1 µM
COc1cc(C(=O)O)cc(C)c1-c1cn(-c2ccccc2)c2ncc(-c3c(C)noc3C)cc12 [P-0255, 4-(5-(3,5-dimethylisoxazol-4-yl)-1-phenyl-1H-pyrrolo[2,3-b]pyridin-3-yl)-3-methoxy-5-methylbenzoic acid] | 0.0001 to 1 µM
Cc1noc(C)c1-c1cnc2c(-c3ccc(C(=O)O)cc3C#N)c(C(F)(F)F)n([C@@H](C)c3ccccn3)c2c1 [P-0256, (S)-3-cyano-4-(6-(3,5-dimethylisoxazol-4-yl)-1-(1-(pyridin-2-yl)ethyl)-2-(trifluoromethyl)-1H-pyrrolo[3,2-b]pyridin-3-yl)benzoic acid] | 0.0001 to 1 µM
Cc1noc(C)c1-c1cnc2c(-c3cc(C(=O)O)ccc3Cl)c(C(F)(F)F)n([C@@H](C)c3ccccn3)c2c1 [P-0257, (S)-4-chloro-3-(6-(3,5-dimethylisoxazol-4-yl)-1-(1-(pyridin-2-yl)ethyl)-2-(trifluoromethyl)-1H-pyrrolo[3,2-b]pyridin-3-yl)benzoic acid] | 0.0001 to 1 µM
